From US20120135519A1, “INDUCED DERIVATION OF SPECIFIC ENDODERM FROM hPS CELL-DERIVED DEFINITIVE ENDODERM” (Cellartis AB, priority 2009, published 2012) come the findings set out here.

Common to all, as to assay type: cell-based, human
One test deals with PDX1 expression. In words: FGF inhibition assays: PDX1 expression in FGF2-treated hPS cell-derived definitive endoderm. Particulars: for PDX1 expression: with FGF2 (64 ng/ml), real-time PCR, fold vs control at day eleven. The procedure:
FGF receptor inhibition assays were performed by adding SU5402 (Calbiochem; […]), LY294002 (Cell Signalling technology; 12.5 μM) and U1026 (Cell Signalling technology; 10 μM) to the medium following DE induction at day three. Control cultures were treated with equal volume of the diluent DMSO. Fresh medium supplemented with appropriate inhibitor was added daily. Two to three samples were taken from separate wells at different time points (day 9-12) for mRNA analysis for each independent experiment.
(§1) Total RNA was extracted with GenElute Mammalian total RNA kit (Sigma-Aldrich). Total RNA concentrations were measured with the NanoDrop ND-1000 spectrophotometer (Nanodrop Technologies). Reverse transcription was performed with SuperScript III, according to the manufacturer's instructions, using 2.5 μM random hexamer and 2.5 μM oligo(dT) (Invitrogen). Real-time PCR measurements were performed on an ABI PRISM 7900HT Sequence Detector System (Applied Biosystems). 20 μl reactions containing 10 μl SuperMix-UDG w/ROX, 400 nM of each primer, 0.125× SYBR Green I (all reagents from Invitrogen) were used. Primer sequences are available as supplementary data (FIG. 6). Formation of expected PCR products was confirmed by agarose gel electrophoresis and melting curve analysis. Gene expression data was normalized against ACTB or RPL7 expression. […] Real-time PCR data analysis was performed as described (Bustin, 2000; Stahlberg et al., 2005).

In the next test the test system is hPS cells. In words: Immunofluorescence stainings of hPS cells treated with different FGF2 concentrations. The procedure:
(§2) At day three, cells were washed with PBS and human FGF2 (Invitrogen) was added at different concentrations (0-256 ng/ml according to specifications in the results) in a KO-DMEM based medium containing 1% Penicillin-streptomycin, 1% Glutamax, 1% non-essential amino acids, 0.1mM beta-Mercaptoethanol and 12% knockout serum replacement (all reagents from Invitrogen). Medium was changed every day. Control cultures without FGF2 were grown in parallel and cell morphology was monitored daily. At each time point, two to four biological replicates were taken for each independent experiment. More specifically, each well was divided into 4-5 equal pieces depending on the number of time points that were analyzed.
hPS cells were fixed in 4% paraformaldehyde for 15 minutes at room temperature and washed three times in PBS-T (0.1% Triton X-100 in PBS). Fixed cells were permeabilized with 0.5% Triton X-100 in PBS for 15 minutes and blocked in PBS-T supplemented with 5% normal donkey serum (Jackson lmmunoresearch) for 1 h at room temperature before they were incubated overnight at 4° C. with the following primary antibodies and dilutions: goat polyclonal antibody (pAb) anti-FOXA-2 (kind gift from Palle Serup; Santa Cruz Biotechnology; 1:200), Guinea Pig pAb anti-PDX-1 (Chris Wright; BetaCellBiologyConsortium; 1:1500), Goat anti-PDX-1 (Chris Wright; BetaCellBiologyConsortium; 1:1500), rabbit pAb anti-NKX6.1 (BetaCellBiologyConsortium; 20 1:4000), mouse anti-CDX-2 (kind gift from Jonathan Draper; Biogenex; 1:500), rabbit pAb anti-SOX-9 (Chemicon; 1:500), rabbit anti-HNF-6 (Santa Cruz Biotechnology; 1:400), mouse mAb-anti PH-3 (Cell Signaling technology; 1:50), rabbit pAb-anti MKi67 (Novocastra; 1:200), rabbit anti-S0X2 (kind gift from Palle Serup; Chemicon; 1:250), goat anti-albumin (Bethyl laboratories; 1:300). After overnight incubation cells were washed three times for 5 minutes in PBS; and incubated with corresponding fluorescent secondary antibodies (Alexa 488, Cy3 and 647; Jackson lmmunoresearch and Invitrogen; diluted according to the manufacturer's instructions) for 60 min in PBS-T supplemented with 5% serum at room temperature. Cell nuclei were visualized by 4′-6′diamidino-2-phenylindole (DAPI) (Sigma-Aldrich; 1:1000) incubation for 4 minutes. Immunofluorescence stainings were detected and analyzed by epifluorescence microscopy (Zeiss Axioplan 2).
The percentage of PDX1 positive cells was calculated using the Imaris Imaging software (Bitplane). Ten randomly selected fields were chosen for each parameter. Using DAPI staining the software estimated the total area of cells. The area of the PDX1 positive cells was calculated in the same manner. Finally, the percentage of PDX1 positive cells was calculated by dividing the area of PDX1 positive cells by the DAPI positive area. Raw data from realtime PCR measurements was exported from SDS 2.2.1 and analyzed by Microsoft Excel graph pad. All data were statistically analyzed by multivariate comparison (one-way ANOVA) with Bonferroni correction. All values are depicted as mean±standard error of the mean (SEM) and considered significant if p<0.05.

For test [1], the system named is hPS cell derived definitive endoderm. In words: Real-time PCR marker expression in hPS cell-derived definitive endoderm treated with FGF2. The procedure:
hPS cells were seeded at a density of 12,000-24,000 cells/cm^2 and cultured until confluence. hPS cells were then differentiated into definitive endoderm as described previously (D'Amour et al., 2005). Briefly, cells were washed in PBS and treated with 100 ng/ml Activin A (R&D systems) and 25 ng/ml Wingless-type MMTV integration site family, member 3A (Wnt3a) in RPM! 1640 (GIBCO, Invitrogen) for three days in low serum (0-0.2% FBS).
as §2, §1

Test [2] has as its system hPS-derived definitive endoderm. As to the kind of experiment: Differentiation towards PDX-1 positive pancreatic endoderm with a single FGF instead of FGF2. To be noted: used alone instead of FGF2.
Where [3] appears, read: all FGF2 treated samples (4-256 ng/ml), day eleven, vs control.
The mark [4] stands for this setting: higher FGF2 concentration, day eleven.
Where [5] appears, read: increasing FGF2 concentrations, day eleven, vs control (Activin A only).

Entries after “also recorded” stand apart in the source; their conditions may differ.

With `O=c1cc(N2CCOCC2)oc2c(-c3ccccc3)cccc12` [LY294002], the PDX1 expression result with PDX1 expression (inhibitor 12.5 μM) is “no significant effect”.

For `Cc1c[nH]c(/C=C2\C(=O)Nc3ccccc32)c1CCC(=O)O` [SU5402], the “number of PDX1 positive cells” value in the test with PDX1 expression (SU5402 with FGF2 (64 ng/ml)) is given as “significantly decreased”. Moreover, the PDX1 expression entry in the test with PDX1 expression (inhibitor 10 μM) is “significantly reduced”.

As to `N#CC(=C(/N)Sc1ccccc1N)/C(C#N)=C(/N)Sc1ccccc1N` [U1026], the PDX1 expression result with PDX1 expression (inhibitor 10 μM) is “diminished; also recorded: significantly reduced”.

Turning to “FGF2: human fibroblast growth factor 2 (Invitrogen) added to the culture medium”, in the test on hPS cells (4 ng/ml FGF2), the “ALB+ cells (ALB stainings)” value was “abundant” and the “PDX1+ cells” value is “absent”. Moreover, the “number of PDX1+ cells (percentage of PDX1 positive cells)” value with hPS cells (64 ng/ml FGF2, Imaris Imaging software, PDX1 area / DAPI area) is 15-20%. Also, in the test on hPS cells (256 ng/ml FGF2), the “ALB+ cells (ALB stainings)” value was “none” and the “number of CDX2+ cells” value is “highest number”. Moreover, the “PDX1+ cells” value with hPS cells (32, 64 and 256 ng/ml FGF2) is listed as “always present”. For the same molecule, the “PDX1 mRNA expression” value in test [1] (4 ng/ml FGF2, day eleven, vs control (Activin A only)) was “remained unchanged”. Besides, in test [1] (64 ng/ml FGF2, day eleven), the “NKX6-1 mRNA expression” value was “peak expression” and the “PDX1 mRNA expression” value is “peak expression”. In test [1] (256 ng/ml FGF2, day eleven), the “CDX2 mRNA expression” value is recorded as “upregulated”, the “FGF10 mRNA expression” value is given as “peak expression”, the “MNX1 mRNA expression” value is recorded as “upregulated” and the “NKX2-1 mRNA expression” value is recorded as “peak expression”. Moreover, in test [1] (256 ng/ml FGF2, day eleven), the “PTCH1 mRNA expression” value is “peak expression”, the “SHH mRNA expression” value was “peak expression”, the “SOX2 mRNA expression” value is “significantly upregulated” and the “SPRY2 mRNA expression” value was “peak expression”. Moreover, in test [1] (FGF2 range tested, day eleven), the “CDX1 mRNA expression” value is on record as “remained unaffected”. Besides, in test [1] (setting [3]), the “NGN3 mRNA expression” value is reported as “upregulated” and the “SOX9 mRNA expression” value is “upregulated”. Besides, in test [1] (all samples, day eleven), the “CPA1 mRNA expression” value is recorded as “remained unchanged” and the “FOXA2 mRNA expression” value was “remained unchanged”. Besides, the CDX4 expression entry in test [1] (any FGF2 concentration) is given as “not detected”. In test [1] (setting [4]), the FGFR1 expression result is “upregulated”, the FGFR2 expression result was “downregulated”, the FGFR3 expression result is “upregulated” and the FGFR4 expression result is “downregulated”. Besides, in test [1] (increasing FGF2 concentrations (data not shown)), the “thyroglobulin (TG) mRNA expression” value is reported as “downregulated”. Moreover, in test [1] (setting [5]), the “ALB mRNA expression” value is recorded as “downregulated”, the “HNF4A mRNA expression” value was “downregulated” and the “ONECUT1 mRNA expression” value is reported as “downregulated”. Moreover, in test [1] (tested FGF2 concentrations, non-dose-dependent), the HHEX expression entry is recorded as “only moderately reduced”.

B1: FGF7: fibroblast growth factor tested alone instead of FGF2 (protein, UniProt P21781 32-194, looked up)
Fibroblast growth factor 7: CNDMTPEQMATNVNCSSPERHTRSYDYMEGGDIRVRRLFCRTQWYLRIDKRGKVKGTQEMKNNYNIMEIRTVAVGIVAIKGVESEFYLAMNKEGKLYAKKECNEDCNFKELILENHYNTYASAKWTHNGGEMFVALNQKGIPVRGKKTKKEQKTAHFLPMAIT
As for B1, the “induction of differentiation towards PDX-1 positive pancreatic endoderm” value in test [2] is “neither FGF4, FGF7 nor FGF10, when used alone instead of FGF2, is capable of inducing differentiation”.

B2: FGF4: fibroblast growth factor tested alone instead of FGF2 (protein, UniProt P08620 31-206, looked up)
Fibroblast growth factor 4: APTAPNGTLEAELERRWESLVALSLARLPVAAQPKEAAVQSGAGDYLLGIKRLRRLYCNVGIGFHLQALPDGRIGGAHADTRDSLLELSPVERGVVSIFGVASRFFVAMSSKGKLYGSPFFTDECTFKEILLPNNYNAYESYKYPGMFIALSKNGKTKKGNRVSPTMKVTHFLPRL
On to B2, for which the “induction of differentiation towards PDX-1 positive pancreatic endoderm” value in test [2] was “neither FGF4, FGF7 nor FGF10, when used alone instead of FGF2, is capable of inducing differentiation”.

B3: FGF10: fibroblast growth factor tested alone instead of FGF2 (protein, UniProt O15520 38-208, looked up)
Fibroblast growth factor 10: QALGQDMVSPEATNSSSSSFSSPSSAGRHVRSYNHLQGDVRWRKLFSFTKYFLKIEKNGKVSGTKKENCPYSILEITSVEIGVVAVKAINSNYYLAMNKKGKLYGSKEFNNDCKLKERIEENGYNTYASFNWQHNGRQMYVALNGKGAPRRGQKTRRKNTSAHFLPMVVHS
For the molecule B3, the “induction of differentiation towards PDX-1 positive pancreatic endoderm” value in test [2] is listed as “neither FGF4, FGF7 nor FGF10, when used alone instead of FGF2, is capable of inducing differentiation”.
